We go through 23 molecules from patent US9650379B2 (CHONG KUN DANG PHARMACEUTICAL CORP., priority 2013, dated 2017).

The IC50 is the midpoint of a concentration-inhibition curve.

One experiment concerns the target T1, HDAC6 human recombinant (Homo sapiens, UniProt Q9UBN7).
T1 construct: purchased Calbiochem 382180
T1 sequence (Q9UBN7 1-1215): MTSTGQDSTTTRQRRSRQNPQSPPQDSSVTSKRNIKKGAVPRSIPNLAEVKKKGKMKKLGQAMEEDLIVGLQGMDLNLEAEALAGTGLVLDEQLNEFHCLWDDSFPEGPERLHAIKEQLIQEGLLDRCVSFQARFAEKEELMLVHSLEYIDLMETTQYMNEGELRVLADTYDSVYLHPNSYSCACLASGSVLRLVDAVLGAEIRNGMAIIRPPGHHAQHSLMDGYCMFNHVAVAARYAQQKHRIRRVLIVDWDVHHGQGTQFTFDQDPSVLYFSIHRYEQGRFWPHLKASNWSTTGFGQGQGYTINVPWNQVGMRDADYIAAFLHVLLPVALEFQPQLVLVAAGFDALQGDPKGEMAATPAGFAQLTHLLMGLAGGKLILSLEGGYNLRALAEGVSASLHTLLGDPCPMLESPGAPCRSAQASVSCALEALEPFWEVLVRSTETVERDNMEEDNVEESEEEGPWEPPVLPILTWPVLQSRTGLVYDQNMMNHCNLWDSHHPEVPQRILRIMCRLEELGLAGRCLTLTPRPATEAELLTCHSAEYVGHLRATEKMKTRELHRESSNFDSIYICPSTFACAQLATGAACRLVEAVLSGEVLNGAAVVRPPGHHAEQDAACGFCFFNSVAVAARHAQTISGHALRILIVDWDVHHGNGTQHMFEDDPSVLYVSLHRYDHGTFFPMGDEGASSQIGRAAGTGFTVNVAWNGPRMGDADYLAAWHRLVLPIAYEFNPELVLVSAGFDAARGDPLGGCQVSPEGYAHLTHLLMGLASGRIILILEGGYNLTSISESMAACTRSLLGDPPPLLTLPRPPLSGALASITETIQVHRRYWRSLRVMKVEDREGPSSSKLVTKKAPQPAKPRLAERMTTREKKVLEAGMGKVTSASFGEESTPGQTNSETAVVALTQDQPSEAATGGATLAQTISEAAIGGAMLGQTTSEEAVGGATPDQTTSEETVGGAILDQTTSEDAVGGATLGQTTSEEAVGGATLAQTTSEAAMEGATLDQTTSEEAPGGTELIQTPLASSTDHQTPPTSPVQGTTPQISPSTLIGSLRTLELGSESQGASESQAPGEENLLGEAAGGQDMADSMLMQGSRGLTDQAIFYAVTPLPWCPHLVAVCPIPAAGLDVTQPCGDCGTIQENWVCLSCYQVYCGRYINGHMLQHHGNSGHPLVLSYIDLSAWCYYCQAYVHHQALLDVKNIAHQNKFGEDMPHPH
As to the kind of experiment: Inhibition of HDAC6 activity (fluorimetric assay). It is filed as biochemical. As to conditions: test concentrations 0.1, 1, 10, 100 and 1000 nM; 37° C., 60 minutes. As for the experimental part: (§1) Assays were performed using a HDAC1 fluorimetric drug discovery assay kit (Enzolifesciences: BML-AK511) and a HDAC6 human recombinant (Calbiochem: 382180). The assay mixture of the kit was treated with a test compound at concentrations of 100, 1000 and 10000 nM for HDAC1 assay and concentrations of 0.1, 1, 10, 100 and 1000 nM for HDAC6 assay. The treated assay mixture was allowed to react at 37° C. for 60 minutes, and then was treated with a developer and allowed to stand at 37° C. for 30 minutes, followed by quantification of the fluorescence.

Another experiment addresses T2, HDAC1 (Homo sapiens, UniProt Q13547).
T2 construct: purchased Enzolifesciences BML-AK511
Nature of the experiment: Inhibition of HDAC1 activity (HDAC1 fluorimetric drug discovery assay kit). The format is biochemical. As to conditions: test concentrations 100, 1000 and 10000 nM; 37° C., 60 minutes. As for the experimental part: as §1

T2 sequence (Q13547 whole entry): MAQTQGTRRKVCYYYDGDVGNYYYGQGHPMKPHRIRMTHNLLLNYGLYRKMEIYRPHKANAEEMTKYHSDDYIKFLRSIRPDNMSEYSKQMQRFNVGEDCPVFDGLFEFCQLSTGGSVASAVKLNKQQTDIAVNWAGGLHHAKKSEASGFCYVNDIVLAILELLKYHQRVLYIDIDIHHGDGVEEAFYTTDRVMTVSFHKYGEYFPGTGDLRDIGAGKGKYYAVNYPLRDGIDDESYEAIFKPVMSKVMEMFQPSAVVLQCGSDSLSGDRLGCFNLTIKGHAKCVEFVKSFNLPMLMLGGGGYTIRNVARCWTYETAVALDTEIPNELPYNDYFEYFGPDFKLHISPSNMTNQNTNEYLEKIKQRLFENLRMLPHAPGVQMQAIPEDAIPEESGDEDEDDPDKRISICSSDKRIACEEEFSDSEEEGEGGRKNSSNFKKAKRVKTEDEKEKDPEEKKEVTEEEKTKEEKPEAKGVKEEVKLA

In the case of `O=C(NO)c1ccc(Cn2ccc3cc(-c4cnc(O)nc4)cnc32)cc1` [Compound 687, N-hydroxy-4-((5-(2-hydroxypyrimidin-5-yl)-1H-pyrrolo[2,3-b]pyridin-1-yl)methyl)benzamide], the IC50 is 61 nM on HDAC6 human recombinant and 3230 nM on HDAC1.
As for `O=C(NO)c1ccc(Cn2ccc3cc(-c4ccc5cccnc5c4)cnc32)cc1` [Compound 688, N-hydroxy-4-((5-(quinolin-7-yl)-1H-pyrrolo[2,3-b]pyridin-1-yl)methyl)benzamide], the results for the IC50 on HDAC6 human recombinant and at HDAC1 were 22 nM and 4610 nM, respectively.
With `COc1ccc(-c2cnc3c(ccn3Cc3ccc(C(=O)NO)cc3)c2)cc1` [Compound 689, N-hydroxy-4-((5-(4-methoxyphenyl)-1H-pyrrolo[2,3-b]pyridin-1-yl)methyl)benzamide], the IC50 was determined as 83 nM on HDAC6 human recombinant and 3170 nM on HDAC1.
For `Nc1cccc(-c2cnc3c(ccn3Cc3ccc(C(=O)NO)cc3)c2)c1` [Compound 690, 4-((5-(3-aminophenyl)-1H-pyrrolo[2,3-b]pyridin-1-yl)methyl)-N-hydroxybenzamide], the IC50 is 12 nM at HDAC6 human recombinant and 2310 nM against HDAC1.
For `O=C(NO)c1ccc(Cn2ccc3cc(-c4ccc(O)cc4)cnc32)cc1` [Compound 691, N-hydroxy-4-((5-(4-hydroxyphenyl)-1H-pyrrolo[2,3-b]pyridin-1-yl)methyl)benzamide], in that order: 5 nM and 2310 nM.
In the same order, the values of `CC(C)(C)OC(=O)N1CC=C(c2cnc3c(ccn3Cc3ccc(C(=O)NO)cc3)c2)CC1` [Compound 692, tert-butyl 4-(1-(4-(hydroxycarbamoyl)benzyl)-1H-pyrrolo[2,3-b]pyridin-5-yl)-5,6-dihydropyridine-1(2H)-carboxylate] are 8 nM and 3430 nM.
With `O=C(NO)c1ccc(Cn2ccc3cc(C4=CCNCC4)cnc32)cc1` [Compound 693, N-hydroxy-4-((5-(1,2,3,6-tetrahydropyridin-4-yl)-1H-pyrrolo[2,3-b]pyridin-1-yl)methyl)benzamide], the IC50 is 3 nM at HDAC6 human recombinant and 520 nM against HDAC1.
Consider `CC(C)(C)OC(=O)N1CCC(c2cnc3c(ccn3Cc3ccc(C(=O)NO)cc3)c2)CC1` [Compound 694, tert-butyl 4-(1-(4-(hydroxycarbamoyl)benzyl)-1H-pyrrolo[2,3-b]pyridin-5-yl)piperidine-1-carboxylate], for which the IC50 came out at 28 nM on HDAC6 human recombinant and 5170 nM on HDAC1.
Take `O=C(NO)c1ccc(Cn2ccc3c(N4CCN(c5ccc(C(F)(F)F)cn5)CC4)ccnc32)cc1` [Compound 700, N-hydroxy-4-((4-(4-(5-(trifluoromethyl)pyridin-2-yl)piperazin-1-yl)-1H-pyrrolo[2,3-b]pyridin-1-yl)methyl)benzamide]: the IC50 was found to be 41 nM at HDAC6 human recombinant and 4240 nM at HDAC1.
Consider `O=C(NO)c1ccc(Cn2ccc3c(N4CCN(c5cnc(C(F)(F)F)cn5)CC4)ccnc32)cc1` [Compound 701, N-hydroxy-4-((4-(4-(5-(trifluoromethyl)pyrazin-2-yl)piperazin-1-yl)-1H-pyrrolo[2,3-b]pyridin-1-yl)methyl)benzamide], for which the figures for the IC50 on HDAC6 human recombinant and on HDAC1 were 23 nM and 1530 nM, respectively.
Consider `CCc1cnc(N2CCN(c3ccnc4c3ccn4Cc3ccc(C(=O)NO)cc3)CC2)nc1` [Compound 702, 4-((4-(4-(5-ethylpyrimidin-2-yl)piperazin-1-yl)-1H-pyrrolo[2,3-b]pyridin-1-yl)methyl)-N-hydroxybenzamide], for which the IC50 at HDAC6 human recombinant was determined as 16 nM; against HDAC1, 1040 nM.
As for `O=C(NO)c1ccc(Cn2ccc3c(N4CCN(C(=O)C5(C(F)(F)F)CCC5)CC4)ccnc32)cc1` [Compound 703, N-hydroxy-4-((4-(4-(1-(trifluoromethyl)cyclobutanecarbonyl)piperazin-1-yl)-1H-pyrrolo[2,3-b]pyridin-1-yl)methyl)benzamide], the IC50 on HDAC6 human recombinant came out at 6 nM; on HDAC1, 720 nM.
Turning to `O=C(NO)c1ccc(Cn2ccc3c(N4CCN(Cc5ccccc5)CC4)ccnc32)cc1` [Compound 704, 4-((4-(4-benzylpiperazin-1-yl)-1H-pyrrolo[2,3-b]pyridin-1-yl)methyl)-N-hydroxybenzamide], the IC50 at HDAC6 human recombinant was 9 nM; against HDAC1, 620 nM.
With `COc1ccc(CN2CCN(c3ccnc4c3ccn4Cc3ccc(C(=O)NO)cc3)CC2)cc1` [Compound 705, N-hydroxy-4-((4-(4-(4-methoxybenzyl)piperazin-1-yl)-1H-pyrrolo[2,3-b]pyridin-1-yl)methyl)-benzamide], the IC50 came to 11 nM at HDAC6 human recombinant and 1120 nM at HDAC1.
On to `O=C(NO)c1ccc(Cn2ccc3c(N4CCN(Cc5ccc(C(F)(F)F)cc5)CC4)ccnc32)cc1` [Compound 706, N-hydroxy-4-((4-(4-(4-(trifluoromethyl)benzyl)piperazin-1-yl)-1H-pyrrolo[2,3-b]pyridin-1-yl)methyl)benzamide], for which the figures for the IC50 on HDAC6 human recombinant and at HDAC1 were 30 nM and 2330 nM, respectively.
On to `CC(C)(O)CN1CCC(c2cnc3c(ccn3Cc3ccc(C(=O)NO)cc3)c2)CC1` [Compound 714, N-hydroxy-4-((5-(1-(2-hydroxy-2-methylpropyl)piperidin-4-yl)-1H-pyrrolo[2,3-b]pyridin-1-yl)methyl)benzamide], for which the IC50 on HDAC6 human recombinant was 12 nM; against HDAC1 it was 1200 nM.
For the molecule `O=C(NO)c1ccc(Cn2ccc3cc(C4CCNCC4)cnc32)cc1` [Compound 715, N-hydroxy-4-((5-(piperidin-4-yl)-1H-pyrrolo[2,3-b]pyridin-1-yl)methyl)benzamide], the IC50 on HDAC6 human recombinant was 8 nM; against HDAC1 it was 540 nM.
For the molecule `O=C(NO)c1ccc(Cn2ccc3cc(C4=CCN(CC5CCCCC5)CC4)cnc32)cc1` [Compound 721, 4-((5-(1-(cyclohexylmethyl)-1,2,3,6-tetrahydropyridin-4-yl)-1H-pyrrolo[2,3-b]pyridin-1-yl)methyl)-N-hydroxybenzamide], the IC50 was found to be 19 nM on HDAC6 human recombinant and 1320 nM at HDAC1.
`Nc1cccc(-c2ccnc3c2ccn3Cc2ccc(C(=O)NO)cc2)c1` [Compound 722, 4-((4-(3-aminophenyl)-1H-pyrrolo[2,3-b]pyridin-1-yl)methyl)-N-hydroxybenzamide]: the results for the IC50 on HDAC6 human recombinant and on HDAC1 were 3 nM and 270 nM, respectively.
Consider `CN1CC=C(c2ccnc3c2ccn3Cc2ccc(C(=O)NO)cc2)CC1` [Compound 723, N-hydroxy-4-((4-(1-methyl-1,2,3,6-tetrahydropyridin-4-yl)-1H-pyrrolo[2,3-b]pyridin-1-yl)methyl)benzamide], for which the IC50 was 5 nM on HDAC6 human recombinant and 310 nM on HDAC1.
As to `O=C(NO)c1ccc(Cn2ccc3cc(C4CCN(CC5(C(F)(F)F)CCC5)CC4)cnc32)cc1` [Compound 724, N-hydroxy-4-((5-(1-((1-(trifluoromethyl)cyclobutyl)methyl)piperidin-4-yl)-1H-pyrrolo[2,3-b]pyridin-1-yl)methyl)benzamide], the IC50 on HDAC6 human recombinant worked out at 147 nM; against HDAC1, 9820 nM.
Take `O=C(NO)c1ccc(Cn2ccc3ccc(C4=CCOCC4)nc32)cc1` [Compound 743, 4-((6-(3,6-dihydro-2H-pyran-4-yl)-1H-pyrrolo[2,3-b]pyridin-1-yl)methyl)-N-hydroxybenzamide]: the IC50 amounted to 25 nM at HDAC6 human recombinant and 190 nM on HDAC1.
For `CC(C)(C)OC(=O)N1CC=C(c2ccc3ccn(Cc4ccc(C(=O)NO)cc4)c3n2)CC1` [Compound 744, tert-butyl 4-(1-(4-(hydroxycarbamoyl)benzyl)-1H-pyrrolo[2,3-b]pyridin-6-yl)-5,6-dihydropyridine-1(2H)-carboxylate], the IC50 came out at 62 nM on HDAC6 human recombinant and 1890 nM against HDAC1.
